The results in this text go back to EPA's ToxRefDB 2.

Data set [1] has as its system rat. Conditions: Subchronic oral toxicity in rodents, Fischer, Gavage/Intubation, dose end: 13 week, group: systemic, systemic / hematology / erythrocyte (rbc) count differential / erythrocyte (rbc) + systemic / hematology / hematocrit (hct) / hematocrit (….
Data set [2] deals with mouse. Conditions: Subchronic oral toxicity in rodents, b6c3f1, Gavage/Intubation, dose end: 13 week, group: systemic.
Data set [3] has as its system rat. Conditions: Combined chronic toxicity/carcinogenicity; fischer; Oral; Gavage/Intubation; dose end: 103 week; group: systemic; systemic / hematology / erythrocyte (rbc) count differential / erythrocyte (rbc) + systemic / hematology / hematocrit (hct) / hematocrit (….
Data set [4] deals with mouse. Conditions: Combined chronic toxicity/carcinogenicity, b6c3f1, Oral, Gavage/Intubation, dose end: 103 week, group: systemic.
Data set [5] relates to rat. Conditions: Combined chronic toxicity/carcinogenicity, fischer, Oral, Feed, dose end: 24 month.
In data set [6] the test system is rat. Conditions: Combined chronic toxicity/carcinogenicity, fischer, Oral, Feed, dose end: 24 month. The source holds these as a separate data set.
The subject of data set [7] is mouse. Conditions: Carcinogenicity, b6c3f1, Oral, Feed, dose end: 18 month.
Data set [8] concerns rat. Conditions: Developmental neurotoxicity ChE Inhibition study; sprague dawley; Oral; Gavage/Intubation; dose end: 21 PND; group: cannot be grouped; cholinesterase / cholinesterase / cholinesterase / erythrocyte cholinesterase (che).
Another data set concerns dog. Conditions: Chronic toxicity, beagle, Oral, Feed, dose end: 52 week, group: systemic, systemic / in life observation / clinical signs / feces.
Data set [9] concerns rat. Conditions: Combined chronic toxicity/carcinogenicity, fischer, Oral, Feed, dose end: 2 year, group: systemic.
Data set [10] deals with rat. Conditions: Subchronic oral toxicity in rodents, wistar, Feed, dose end: 13 week, group: systemic.
Setting [11] is: systemic / hematology / erythrocyte (rbc) count differential / erythrocyte (rbc) + systemic / hematology / hematocrit (hct) / hematocrit (….
Where [12] appears, read: systemic / hematology / hematocrit (hct) / hematocrit (hct) + systemic / pathology microscopic / spleen / hematopoietic cell proliferation….
Where [13] appears, read: systemic / pathology microscopic / blood / lymphoma malignant + systemic / pathology microscopic / kidney / hemosiderosis + systemic / ….
Setting [14] is: systemic / pathology microscopic / blood / lymphoma malignant + systemic / pathology microscopic / liver / hematopoietic cell proliferation….
The mark [15] stands for this setting: group: cholinesterase, cholinesterase / cholinesterase / cholinesterase / erythrocyte cholinesterase (che).
The mark [16] stands for this setting: group: cholinesterase, cholinesterase / cholinesterase / cholinesterase / plasma cholinesterase (che).
Setting [17] is: group: cholinesterase, cholinesterase / cholinesterase / cholinesterase / plasma cholinesterase (che) + cholinesterase / cholinesterase / cholinesterase / brain ….
[18] abbreviates: group: systemic, systemic / hematology / mean corpuscular (cell) volume (mcv) / mean corpuscular (cell) volume (mcv) + systemic / hematology / mean ….
[19] abbreviates: group: systemic, systemic / in life observation / food consumption / food consumption + systemic / pathology microscopic / parathyroid gland / hyperplasia.
Where [20] appears, read: group: systemic, systemic / pathology microscopic / parathyroid gland / hyperplasia.
Setting [21] is: group: systemic, systemic / pathology microscopic / parathyroid gland / hyperplasia + systemic / hematology / erythrocyte (rbc) count differential / ….
Setting [22] is: group: cholinesterase, cholinesterase / cholinesterase / cholinesterase / erythrocyte cholinesterase (che) + cholinesterase / cholinesterase / cholinesterase / ….
The mark [23] stands for this setting: group: systemic, systemic / in life observation / body weight / body weight + systemic / in life observation / food consumption / food consumption + systemic….
Setting [24] is: discoloration + systemic / hematology / blood clotting / blood clotting - activated….
Setting [25] is: systemic / clinical chemistry / urea nitrogen / urea nitrogen.
The mark [26] stands for this setting: systemic / hematology / platelet / platelet + systemic / in life observation / body weight / body weight + systemic / in life observation / ….
Setting [27] is: systemic / clinical chemistry / sodium / sodium.
Setting [28] is: systemic / hematology / blood clotting / blood clotting - prothrombin time + systemic / hematology / blood clotting / blood clotting - ….

As usually defined, the LOAEL is the lowest tested level that showed an adverse finding. Broadly, the NOAEL is the highest tested level that showed no adverse finding.

As for `Cl.Nc1ccc(Cl)cc1` [4-Chloroaniline hydrochloride], the LEL with rat [1] is 5 mg/kg/day; in the data set with mouse [2] (setting [12]), 7.5 mg/kg/day; with rat [3] it was 2 mg/kg/day; in the data set with mouse [4] (setting [14]) it was 3 mg/kg/day. Further, the LOAEL was over 80 mg/kg/day in the data set with rat [1], 15 mg/kg/day in the data set on mouse [2] (setting [11]), 6 mg/kg/day with rat [3] and over 30 mg/kg/day with mouse [4] (setting [13]). For the same compound, the NEL with rat [1] was under 5 mg/kg/day; in the data set on mouse [2] (setting [12]), under 7.5 mg/kg/day; with rat [3], under 2 mg/kg/day; in the data set with mouse [4] (setting [14]) it was under 3 mg/kg/day. Besides, the NOAEL with rat [1] is at least 80 mg/kg/day; with mouse [2] (setting [11]) it was 7.5 mg/kg/day; with rat [3] it was 2 mg/kg/day; with mouse [4] (setting [13]) it was at least 30 mg/kg/day.
For `CCOC(=O)CC(SP(=S)(OC)OC)C(=O)OCC` (stereo unspecified) [Malathion], the LEL turned out to be 5 mg/kg/day in the data set with rat [5] (setting [15]); 4 mg/kg/day with rat [5] (setting [19]); 29 mg/kg/day with rat [6] (group: cholinesterase, cholinesterase / cholinesterase / cholinesterase / plasma cholinesterase (che) + cholinesterase / cholinesterase / cholinesterase / …); 4 mg/kg/day in the data set on rat [6] (setting [20]); 143 mg/kg/day in the data set on mouse [7] (setting [22]); 1480 mg/kg/day in the data set on mouse [7] (setting [23]). In the data set on rat [8], this compound had an LEL of 5 mg/kg/day. The NEL with rat [5] (setting [15]) is under 5 mg/kg/day; in the data set with rat [5] (setting [19]), under 4 mg/kg/day; in the data set with rat [6] (setting [17]), 4 mg/kg/day; with rat [6] (setting [20]), under 4 mg/kg/day; with mouse [7] (setting [22]), 17.4 mg/kg/day; in the data set with mouse [7] (setting [23]) it was 143 mg/kg/day. For the same compound, the NEL with rat [8] is under 5 mg/kg/day. Moreover, the LOAEL in the data set with rat [5] (setting [16]) was 29 mg/kg/day; in the data set with rat [5] (setting [18]) it was 359 mg/kg/day; in the data set on rat [6] (setting [16]), 29 mg/kg/day; in the data set with rat [6] (setting [21]) it was over 739 mg/kg/day; in the data set on mouse [7] (setting [22]), 143 mg/kg/day; with mouse [7] (setting [23]), 1480 mg/kg/day. The LOAEL in the data set on rat [8] amounted to 5 mg/kg/day. Also, the NOAEL in the data set on rat [5] (setting [17]) is 4 mg/kg/day; in the data set with rat [5] (setting [18]), 29 mg/kg/day; with rat [6] (setting [17]) it was 4 mg/kg/day; in the data set on rat [6] (setting [21]) it was at least 739 mg/kg/day; with mouse [7] (setting [22]) it was 17.4 mg/kg/day; in the data set with mouse [7] (setting [23]), 143 mg/kg/day. The compound further returned an NOAEL in the data set on rat [8] of under 5 mg/kg/day.
With `CC(C)N1C(=O)c2ccccc2NS1(=O)=O` [Bentazon], the lowest-observed-adverse-effect level (LOAEL) worked out at 13.1 mg/kg/day in the data set on dog (discoloration), 180 mg/kg/day in the data set on rat [9] (setting [26]) and 243 mg/kg/day in the data set on rat [10] (setting [28]). Further, the NEL was 3.2 mg/kg/day with dog (setting [24]), under 9 mg/kg/day with rat [9] (setting [25]) and under 25.3 mg/kg/day with rat [10] (setting [27]). Further, the no-observed-adverse-effect level (NOAEL) in the data set with dog (setting [24]) was found to be 3.2 mg/kg/day; with rat [9] (setting [26]), 35 mg/kg/day; with rat [10] (setting [28]) it was 77.8 mg/kg/day. Moreover, the LEL with dog (discoloration + systemic / in life observation / clinical signs / [other]) came out at 13.1 mg/kg/day; in the data set with rat [9] (setting [25]), 9 mg/kg/day; in the data set with rat [10] (setting [27]), 25.3 mg/kg/day.
